# Results published in PubChem BioAssay AID449750 (Broad Institute, 2010).
# The source made the active and inactive calls. The rule behind the calls is not given here.
# Test: non-covalent RecA intein splicing inhibitors, dose response, biochemical, cell-free, fluorescence, secondary screen (AID 449750)
row,SMILES,AC50
1,O=C(c1ccco1)N1CCN(c2nc(C3CC3)nc3sc4c(c23)CCCC4)CC1,12.7 µM
2,Cc1ccc(Cn2ncc(Cl)c(Cl)c2=O)cc1,22 µM
3,CC(NC(=O)COC(=O)c1cc(NS(=O)(=O)c2ccc(Cl)c([N+](=O)[O-])c2)ccc1O)C1CC2CCC1C2 (stereo not drawn),1.67 µM
4,COc1cc(NC2CCCCC2O)c2nc(-c3ccc(Cl)cc3)ccc2c1 (stereo not drawn),9.05 µM
5,CCOC(=O)c1ccc(-n2[nH]c(-c3ccccc3)cc2=O)cc1,5.45 µM
6,COCCOC(=O)C1=C(C)N=C2SCCC(=O)N2C1c1ccc(OC(=O)c2ccco2)cc1 (stereo not drawn),> 38 µM (inactive)
7,CCCc1nn(C)c2c1C(c1ccncc1)C(C#N)=C(N)O2 (stereo not drawn),> 38 µM (inactive)
8,O=C1C(Cl)=C(N2CCOCC2)C(=O)N1c1ccccc1F,> 38 µM (inactive)
9,Cc1[nH][nH]c(=O)c1C(c1cc(Br)ccc1O)c1c(C)[nH][nH]c1=O,8.35 µM
10,CC1=NNC(=O)C1C(c1cccc(O)c1)C(C#N)C#N (stereo not drawn),> 38 µM (inactive)
11,O=C1/C(=C\c2cc([N+](=O)[O-])ccc2O)SC(=S)N1Cc1ccc(Cl)cc1,13.8 µM
12,Cc1cccc(N(Cc2ccccc2)C(=O)CCl)c1,2.06 µM
13,CCCNC1=C(N(C(C)=O)c2cccc(F)c2)C(=O)c2ccccc2C1=O,3.72 µM
14,Cc1ccc2c(c1)c1c3n2CCN(C(=O)CCl)C3CCC1 (stereo not drawn),3.29 µM
15,C=CCn1c(-c2cccnc2Cl)nc2ccccc21,> 38 µM (inactive)
16,Cc1ccc(S(=O)(=O)NC(=O)Nc2ccc(N(C)C)cc2)cc1,31 µM
17,O=C(NC1=C(Nc2ccc(Cl)cc2)C(=O)c2ccccc2C1=O)c1ccccc1,34.4 µM
18,COC(=O)c1c(C)oc2ccc(N(C(=O)c3ccncc3)S(=O)(=O)c3ccc4ccccc4c3)cc12,> 38 µM (inactive)
19,Oc1cccc(Nc2nc(-c3ccccc3Cl)nc3ccccc23)c1,> 38 µM (inactive)
20,Cc1[nH][nH]c(=O)c1[C@@H](c1ccccc1[N+](=O)[O-])C(C#N)C#N,> 38 µM (inactive)
21,CCn1c(-c2ccccc2)c(C(=O)CCl)c2ccccc21,6.01 µM
22,O=C(CCl)Nc1cn(-c2ccccc2)nc1-c1ccc(F)cc1,2.82 µM
23,C=CCn1c(N)c(C(=O)Nc2cccc(C)c2)c2nc3ccccc3nc21,14.4 µM
24,O=[N+]([O-])c1cc(Br)c(Nc2ccccc2)c([N+](=O)[O-])c1,7.02 µM
25,Cc1ccc(C(C[N+](=O)[O-])c2c(C)[nH]n(-c3ccccc3)c2=O)cc1 (stereo not drawn),5.5 µM
26,COc1cc(/C=C2/C(=O)N(c3cccc(Br)c3)N=C2C)cc(OC)c1O,9.46 µM
27,CC(C)(c1ccccc1)c1ccc(OCC2CO2)cc1 (stereo not drawn),8.68 µM

row,SMILES,AC50
1,O=C1C(Cl)=C(N2CCC(C(=O)O)CC2)C(=O)c2ccccc21,1.41 µM
2,CCOC(=O)C1=C(O)c2ccccc2C(=O)/C1=C\c1ccc(CC)cc1,7.05 µM
3,Cc1cccc(CSC(Nc2ccc(F)cc2)=C(C#N)C#N)c1,> 38 µM (inactive)
4,Cc1c(Cl)cccc1NC(=S)/C(=C(\[O-])c1ccc(Cl)s1)[n+]1ccccc1,> 38 µM (inactive)
5,COc1cc(/C=C(\C#N)c2nc3ccccc3o2)ccc1O,> 38 µM (inactive)
6,Cc1ccc(NC2=C(NCCO)C(=O)c3ccccc3C2=O)cc1,20.3 µM
7,Cc1cc(C)c(C#N)c(SCc2[nH]nc3c2C(c2ccc(F)cc2)C(C#N)=C(N)O3)n1 (stereo not drawn),29.2 µM
8,Cc1cc(O)ccc1Nc1nc(-c2cccs2)cs1,31.7 µM
9,Cc1ccc(-c2noc(-c3ccccc3C(=O)N3CCOCC3)n2)cc1,> 38 µM (inactive)
10,O=C1C=C(Nc2ccccc2C(=O)O)c2ccccc2C1=O,6.57 µM
11,Cc1ccc(NC(=O)c2cnc(SCC(=O)NCC3CCCO3)n(C)c2=O)cc1 (stereo not drawn),> 38 µM (inactive)
12,COc1ccc(-n2nc3c(c2NC(=O)CCl)CSC3)cc1,26.9 µM
13,Cc1ccc(C[n+]2c(-c3ccc(C)cc3)cc(-c3ccc(C)cc3)cc2-c2ccc(C)cc2)cc1,6.62 µM
14,CCOc1cc(/C=C2\C(=N)N3N=C(N4CCCCC4)SC3=NC2=O)ccc1OC(=O)c1ccco1,> 38 µM (inactive)
15,COc1ccc(S(=O)(=O)Nc2ccc(O)c3ccccc23)cc1,0.296 µM
16,Cc1ccc(-n2nnnc2CCl)cc1,24 µM
17,Cc1ccccc1NC(=O)C(=Cc1ccc(C(=O)O)cc1)C(=O)Nc1ccccc1C,> 38 µM (inactive)
18,Cc1[nH]nc2c1C1(CCOCC1)C(C#N)=C(N)O2,> 38 µM (inactive)
19,CC1=NN(c2cccc(Cl)c2)C(=O)C1,34.3 µM
20,CCc1[nH]nc2c1C(c1ccc(C)o1)C(C#N)=C(N)O2 (stereo not drawn),> 38 µM (inactive)
21,Cc1ccccc1CS(=O)(=O)c1nnc([C@H](Cc2ccccc2)NC(=O)OC(C)(C)C)o1,> 38 µM (inactive)
22,COC(=O)C(O)(c1c(C)[nH]n(-c2ccccc2)c1=O)C(F)(F)F (stereo not drawn),5.49 µM
23,NC1=C(Br)C(=O)c2ccccc2C1=O,13.1 µM
24,CCOc1ccc(-n2c(C)cc(C(=O)CCl)c2C)cc1,9.25 µM
25,O=C(c1c[nH]c(C(=O)C(Cl)(Cl)Cl)c1)c1ccccc1Cl,24.9 µM
26,CC1CCCN(C2=C(Cl)C(=O)N(c3cccc(Cl)c3)C2=O)C1 (stereo not drawn),> 38 µM (inactive)
